Measured values published in patent US20070049591A1, “Inhibitors of MAPK/Erk Kinase” (KALYPSYS, INC., priority 2005, published 2007).

The compounds below were run against T1, human phospho-Mek1 / non-phosphorylated Mek1 (Homo sapiens, UniProt Q02750) (assay: In vitro Mek1 Kinase Assay). Details: recombinant GST/His6-tagged Mek1, 2 μM ATP, 2 hours at 30° C., PKLight luminescence readout.
T1 construct: GST (N); His6 (C); purchased Upstate 14-429 (phospho-Mek1) or 14-420 (non-phosphorylated Mek1)
Format: biochemical
Description: In vitro Mek1 Kinase Assay
2.5 μl of Mek1 kinase buffer (10 mM MOPS [pH 7.2], 25 mM sodium glycerophosphate, 5 mM EGTA [pH 8.0], 1 mM sodium orthovanadate, 1 mM dithiothreitol, 10 mM MgCl2, 0.1% Brij-35, 0.3 mg/ml bovine serum albumin) containing either 5 ng of high specific activity, recombinant N-terminal GST-tagged, C-terminal His6-tagged human phospho-Mek1 (Upstate Cat. 14-429), or 200 ng of low specific activity, non-phosphorylated Mek1 (Upstate Cat. 14-420), is dispensed into one well of a 1536 multi-well white solid plate. 50 nl of 100× concentration of test compound in dimethyl sulfoxide (DMSO) is dispensed to the well by passive pin transfer and incubated for 15 minutes at room temperature (22° C.). 2.5 μl of Mek1 kinase buffer containing 2 μM ATP is then dispensed and the kinase reaction is allowed to incubate at 30° C. for 2 hours. The assay plates are lidded and maintained in a humidified environment. After 2 hours, 2.5 μl of PKLight protein kinase assay reagent (Cambrex) is dispensed. After an additional 5 minute incubation at room temperature, luminescence activity is measured on a suitable multi-mode plate reader. Inhibition of Mek1 kinase causes an associated increase in luminescence activity that is proportional to compound concentration. Negative control activity is measured with DMSO lacking any test compound. Positive control activity is measured with (R)—N— (2,3-dihydroxypropoxy)-3,4-fluoro4-iodophenylamino)benzamide [Thompson, N. and Lyons, J., Curr Opin Pharmacol, 5:350-356, 2005 (PD-0325901)]. Efficacy is measured as a percentage of positive control activity.

T1 sequence (Q02750 whole entry): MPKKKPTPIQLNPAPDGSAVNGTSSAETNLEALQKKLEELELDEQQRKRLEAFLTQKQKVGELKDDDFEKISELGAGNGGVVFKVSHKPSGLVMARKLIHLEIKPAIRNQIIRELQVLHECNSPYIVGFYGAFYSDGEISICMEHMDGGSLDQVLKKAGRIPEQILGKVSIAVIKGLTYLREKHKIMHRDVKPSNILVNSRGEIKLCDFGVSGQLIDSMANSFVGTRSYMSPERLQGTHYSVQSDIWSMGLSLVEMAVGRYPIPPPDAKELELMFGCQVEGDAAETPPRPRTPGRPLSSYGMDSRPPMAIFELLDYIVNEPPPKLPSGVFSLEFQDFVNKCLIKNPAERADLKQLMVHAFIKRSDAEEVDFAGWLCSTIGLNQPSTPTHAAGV

SMILES | IC50
c1nc(NC2CCCC2)c2nc[nH]c2n1 [Example 16, N-cyclopentyl-9H-purin-6-amine] | > 10 µM
CC(C)(C)n1nc(-c2ccc(F)cc2)c2c(N)ncnc21 [Example 3, 1-tert-butyl-3-(4-fluorophenyl)-1H-pyrazolo[3,4-d]pyrimidin-4-amine] | ≤ 10 µM
N#Cc1ccc(-c2cnc3ccc(NCCc4ccccn4)nn23)cc1 [Example 19, 4-(6-(2-(pyridin-2-yl)ethylamino)imidazo[1,2-b]pyridazin-3-yl)benzonitrile] | ≤ 10 µM
c1ccc2c(c1)[nH]c1ncnc(N3CCOCC3)c12 [Example 1, 4-(9H-pyrimido[4,5-b]indol-4-yl)morpholine] | ≤ 10 µM
O=C(O)c1ccc(-c2cnc3ccc(NC4CCC(O)CC4)nn23)cc1 (stereo not shown) [Example 15, 4-(6-(4-hydroxycyclohexylamino)imidazo[1,2-b]pyridazin-3-yl)benzoic acid] | ≤ 10 µM
CC1CCN(c2ncnc3[nH]cnc23)CC1 [Example 6, 6-(4-methylpiperidin-1-yl)-9H-purine] | > 10 µM
N#Cc1ccc(-c2cnc3ccc(NCCc4cccnc4)nn23)cc1 [Example 20, 4-(6-(2-(pyridin-3-yl)ethylamino)imidazo[1,2-b]pyridazin-3-yl)benzonitrile] | ≤ 10 µM
O=C(O)c1ccc(-c2cnc3ccc(NCc4cccs4)nn23)cc1 [Example 9, 4-(6-(thiophen-2-ylmethylamino)imidazo[1,2-b]pyridazin-3-yl)benzoic acid] | ≤ 10 µM
CN(C)CCNc1ccn2ncc(-c3ccc(Cl)cc3)c2n1 [Example 21, N1-(3-(4-chlorophenyl)pyrazolo[1,5-a]pyrimidin-5-yl)-N2,N2-dimethylethane-1,2-diamine] | > 10 µM
Cc1c([N+](=O)[O-])c2ccc(O)cc2n1-c1ccccc1 [Example 2, 2-methyl-3-nitro-1-phenyl-1H-indol-6-ol] | ≤ 10 µM
CCCNc1ccc2ncc(-c3ccc(C(=O)O)cc3)n2n1 [Example 22, 4-(6-(propylamino)imidazo[1,2-b]pyridazin-3-yl)benzoic acid] | > 10 µM
Cn1cc(-c2cnc3ccc(NCc4cccs4)nn23)cn1 [Example 11] | ≤ 10 µM
N#Cc1ccc(-c2cnc3ccc(NC4CCOCC4)nn23)cc1 [Example 12, 4-(6-(tetrahydro-2H-pyran-4-ylamino)imidazo[1,2-b]pyridazin-3-yl)benzonitrile] | ≤ 10 µM

Continued, values first:

IC50 | SMILES
> 10 µM | c1ccc2c(c1)CCN2c1ncnc2[nH]cnc12 [Example 5, 6-(indolin-1-yl)-9H-purine]
≤ 10 µM | O=C(O)c1ccc(-c2cnc3ccc(NCc4ccc(F)cc4)nn23)cc1 [Example 10, 4-(6-(4-fluorobenzylamino)imidazo[1,2-b]pyridazin-3-yl)benzoic acid]
≤ 10 µM | O=C(O)c1ccc(-c2cnc3ccc(NC4CCOCC4)nn23)cc1 [Example 13, 4-(6-(tetrahydro-2H-pyran-4-ylamino)imidazo[1,2-b]pyridazin-3-yl)benzoic acid]
> 10 µM | CC(=O)c1ccc(-c2cnc3ccc(NCc4cccs4)nn23)s1 [Example 8, 1-(5-(6-(thiophen-2-ylmethylamino)imidazo[1,2-b]pyridazin-3-yl)thiophen-2-yl)ethanone]
≤ 10 µM | N#Cc1ccc(-c2cnc3ccc(NCCCO)nn23)cc1 [Example 18, 4-(6-(3-hydroxypropylamino)imidazo [1,2-b]pyridazin-3-yl)benzonitrile]
> 10 µM | COc1cncc(-c2cnc3ccc(NC4CCOCC4)nn23)c1 [Example 14, 3-(5-methoxypyridin-3-yl)-N-(tetrahydro-2H-pyran-4-yl)imidazo[1,2-b]pyridazin-6-amine]
≤ 10 µM | COc1cc(OC)c2c(c1)ncc1c(C)nn(-c3ccccc3)c12 [Example 7, 7,9-dimethoxy-3-methyl-1-phenyl-1H-pyrazolo[4,3-c]quinoline]
≤ 10 µM | CCN(c1ncnc2[nH]cnc12)C1CCCCC1 [Example 4, N-cyclohexyl-N-ethyl-9H-purin-6-anime]
> 10 µM | c1nc2nc[nH]c(NC3CCCCCC3)c-2n1 [Example 17, N-cycloheptyl-9H-purin-6-amine]
